# Measured values taken from PubChem BioAssay AID248 (DTP/NCI, 2004).
# Where “and” joins values, the source holds several entries; their conditions need not be identical. Equal entries are not always repeated. Inconclusive results and toxic doses are left out.
# Test system: L1210 leukemia ip in BDF1 mice, survival T/C
# Assay: NCI In Vivo Anticancer Drug Screen. Data for tumor model L1210 Leukemia (intraperitoneal) in B6D2F1 (BDF1) mice
# Details: endpoint: mean survival time, higher = longer survival
# How it was run: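 Read-out is survival time, reported as the treated-group measurement over the vehicle-control measurement.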
# [1] = dose: 100.0 mg/kg/injection, schedule: Q04DX003 (ip), vehicle: Klucel (hydroxypropylcellulose) (HPC)
# [2] = dose: 200.0 mg/kg/injection, schedule: Q01DX009 (ip), vehicle: saline with Tween-80
# [3] = dose: 400.0 mg/kg/injection, schedule: Q01DX009 (ip), vehicle: saline with Tween-80
# [4] = dose: 400.0 mg/kg/injection, schedule: Q04DX003 (ip), vehicle: Klucel (hydroxypropylcellulose) (HPC)
# [5] = dose: 100.0 mg/kg/injection, schedule: Q01DX001 (ip), vehicle: carboxymethylcellulose (CMC)
# [6] = dose: 200.0 mg/kg/injection, schedule: Q01DX001 (ip), vehicle: carboxymethylcellulose (CMC)
# [7] = dose: 400.0 mg/kg/injection, schedule: Q01DX001 (ip), vehicle: carboxymethylcellulose (CMC)
# [8] = dose: 100.0 mg/kg/injection, schedule: Q04DX003 (ip), vehicle: saline with Tween-80
# [9] = dose: 200.0 mg/kg/injection, schedule: Q04DX003 (ip), vehicle: saline with Tween-80
# [10] = dose: 400.0 mg/kg/injection, schedule: Q04DX003 (ip), vehicle: saline with Tween-80
smiles,measurement,setting,value
O=C1OC(c2ccccc2)(c2ccccc2)Cc2ccccc21,T/C,"dose: 100.0 mg/kg/injection, schedule: Q01DX009 (ip), vehicle: saline with Tween-80",97 % of control
same,T/C,[1],93 % of control
same,T/C,[2],106 % of control
same,T/C,[3],95 % of control
same,T/C,[4],86 % of control
CCCCC(=O)N/N=C\c1cccc2ccccc12,T/C,[5],86 % of control
same,T/C,[6],88 % of control
same,T/C,[7],96 % of control
ClC(CN1CCCCC1)C(Cl)c1ccccc1 (stereo not given),T/C,"dose: 50.0 mg/kg/injection, schedule: Q01DX009 (ip), vehicle: saline",90 % of control
same,T/C,"dose: 50.0 mg/kg/injection, schedule: Q04DX003 (ip), vehicle: saline sonified",96 % of control
same,T/C,"dose: 100.0 mg/kg/injection, schedule: Q01DX009 (ip), vehicle: saline",91 % of control
same,T/C,"dose: 100.0 mg/kg/injection, schedule: Q04DX003 (ip), vehicle: saline sonified",91 % of control
same,T/C,"dose: 200.0 mg/kg/injection, schedule: Q04DX003 (ip), vehicle: saline sonified",101 % of control
Cc1cc(N(C)C)nc(SCc2ccc(Cl)cc2Cl)n1,T/C,"dose: 200.0 mg/kg/injection, schedule: Q01DX Z (ip), vehicle: methylcellulose (MC)",105 % of control
COC(OC)c1cc(=O)n(C)c(=O)[nH]1,T/C,[8],104 % of control
same,T/C,[2],93 % of control
same,T/C,[9],104 % of control
same,T/C,[3],89 % of control
same,T/C,[10],100 % of control
COc1cccc(C(=O)O)c1OS(=O)(=O)c1ccccc1,T/C,"dose: 100.0 mg/kg/injection, schedule: Q01DX009 (ip), vehicle: Klucel (hydroxypropylcellulose) (HPC)",98 % of control
same,T/C,[1],91 % of control
same,T/C,"dose: 200.0 mg/kg/injection, schedule: Q01DX009 (ip), vehicle: Klucel (hydroxypropylcellulose) (HPC)",95 % of control
same,T/C,"dose: 400.0 mg/kg/injection, schedule: Q01DX009 (ip), vehicle: Klucel (hydroxypropylcellulose) (HPC)",93 % of control
same,T/C,[4],94 % of control
N#C/C(=C/c1ccncc1)C(N)=O,T/C,[8],98 % of control
same,T/C,[9],94 % of control
same,T/C,[10],99 % of control
O=c1[nH]c(=O)n(C2CC(O)C(CO)O2)cc1I (stereo not given),T/C,"dose: 62.5 mg/kg/injection, schedule: Q#A X Z (ip), vehicle: other",119 % of control
same,T/C,"dose: 125.0 mg/kg/injection, schedule: Q01DX009 (ip), vehicle: saline",103 % of control and 113 % of control
same,T/C,"dose: 125.0 mg/kg/injection, schedule: Q01DX010 (ip), vehicle: saline",114 % of control and 117 % of control
same,T/C,"dose: 125.0 mg/kg/injection, schedule: Q03DX Z (ip), vehicle: other",119 % of control
same,T/C,"dose: 150.0 mg/kg/injection, schedule: Q01DX009 (ip), vehicle: carboxymethylcellulose (CMC)",167 % of control
same,T/C,"dose: 150.0 mg/kg/injection, schedule: Q01DX009 (ip), vehicle: saline",114 % of control
same,T/C,"dose: 178.0 mg/kg/injection, schedule: Q01DX Z (ip), vehicle: other",124 % of control
same,T/C,"dose: 178.0 mg/kg/injection, schedule: Q01DX Z (ip), vehicle: saline",112 % of control
same,T/C,"dose: 250.0 mg/kg/injection, schedule: Q01DX001 (ip), vehicle: other",105 % of control and 108 % of control
same,T/C,"dose: 250.0 mg/kg/injection, schedule: Q01DX009 (ip), vehicle: saline",111 % of control and 118 % of control
same,T/C,"dose: 250.0 mg/kg/injection, schedule: Q01DX010 (ip), vehicle: saline",114 % of control
same,T/C,"dose: 250.0 mg/kg/injection, schedule: Q03DX Z (ip), vehicle: other",104 % of control
same,T/C,"dose: 250.0 mg/kg/injection, schedule: Q07DX Z (ip), vehicle: other",110 % of control
same,T/C,"dose: 267.0 mg/kg/injection, schedule: Q01DX Z (ip), vehicle: other",116 % of control
same,T/C,"dose: 267.0 mg/kg/injection, schedule: Q01DX Z (ip), vehicle: saline",122 % of control
same,T/C,"dose: 300.0 mg/kg/injection, schedule: Q01DX005 (ip), vehicle: carboxymethylcellulose (CMC)",151 % of control
same,T/C,"dose: 300.0 mg/kg/injection, schedule: Q01DX009 (ip), vehicle: saline",121 % of control
same,T/C,"dose: 304.0 mg/kg/injection, schedule: Q## X024 (ip), vehicle: carboxymethylcellulose (CMC)",150 % of control
same,T/C,"dose: 400.0 mg/kg/injection, schedule: Q01DX Z (ip), vehicle: other",113 % of control
same,T/C,"dose: 500.0 mg/kg/injection, schedule: Q01DX001 (ip), vehicle: other",110 % of control and 113 % of control
same,T/C,"dose: 500.0 mg/kg/injection, schedule: Q01DX009 (ip), vehicle: saline",116 % of control and 120 % of control
same,T/C,"dose: 500.0 mg/kg/injection, schedule: Q01DX010 (ip), vehicle: saline",111 % of control and 122 % of control
same,T/C,"dose: 500.0 mg/kg/injection, schedule: Q03DX Z (ip), vehicle: other",116 % of control
same,T/C,"dose: 500.0 mg/kg/injection, schedule: Q07DX Z (ip), vehicle: other",113 % of control
same,T/C,"dose: 500.0 mg/kg/injection, schedule: Q#A X Z (ip), vehicle: other",152 % of control
same,T/C,"dose: 600.0 mg/kg/injection, schedule: Q01DX005 (ip), vehicle: carboxymethylcellulose (CMC)",107 % of control
same,T/C,"dose: 600.0 mg/kg/injection, schedule: Q01DX009 (ip), vehicle: carboxymethylcellulose (CMC)",92 % of control
same,T/C,"dose: 600.0 mg/kg/injection, schedule: Q## X002 (ip), vehicle: carboxymethylcellulose (CMC)",158 % of control
same,T/C,"dose: 600.0 mg/kg/injection, schedule: Q## X003 (ip), vehicle: carboxymethylcellulose (CMC)",170 % of control
same,T/C,"dose: 600.0 mg/kg/injection, schedule: Q## X016 (ip), vehicle: carboxymethylcellulose (CMC)",158 % of control
same,T/C,"dose: 600.0 mg/kg/injection, schedule: Q## X024 (ip), vehicle: carboxymethylcellulose (CMC)",182 % of control
same,T/C,"dose: 900.0 mg/kg/injection, schedule: Q01DX Z (ip), vehicle: saline",164 % of control
same,T/C,"dose: 1000.0 mg/kg/injection, schedule: Q01DX001 (ip), vehicle: other",110 % of control and 116 % of control
same,T/C,"dose: 1000.0 mg/kg/injection, schedule: Q01DX009 (ip), vehicle: saline",111 % of control and 117 % of control
same,T/C,"dose: 1000.0 mg/kg/injection, schedule: Q01DX010 (ip), vehicle: saline",111 % of control and 124 % of control
same,T/C,"dose: 1000.0 mg/kg/injection, schedule: Q03DX Z (ip), vehicle: other",117 % of control
same,T/C,"dose: 1000.0 mg/kg/injection, schedule: Q07DX Z (ip), vehicle: other",105 % of control
same,T/C,"dose: 1200.0 mg/kg/injection, schedule: Q01DX001 (ip), vehicle: carboxymethylcellulose (CMC)",161 % of control
same,T/C,"dose: 1200.0 mg/kg/injection, schedule: Q## X002 (ip), vehicle: carboxymethylcellulose (CMC)",187 % of control
same,T/C,"dose: 1200.0 mg/kg/injection, schedule: Q## X003 (ip), vehicle: carboxymethylcellulose (CMC)",211 % of control
same,T/C,"dose: 1200.0 mg/kg/injection, schedule: Q## X008 (ip), vehicle: carboxymethylcellulose (CMC)",157 % of control
same,T/C,"dose: 1200.0 mg/kg/injection, schedule: Q## X016 (ip), vehicle: carboxymethylcellulose (CMC)",167 % of control
same,T/C,"dose: 1200.0 mg/kg/injection, schedule: Q## X024 (ip), vehicle: carboxymethylcellulose (CMC)",160 % of control
same,T/C,"dose: 2000.0 mg/kg/injection, schedule: Q01DX010 (ip), vehicle: saline",119 % of control
same,T/C,"dose: 2400.0 mg/kg/injection, schedule: Q01DX001 (ip), vehicle: carboxymethylcellulose (CMC)",175 % of control
same,T/C,"dose: 2400.0 mg/kg/injection, schedule: Q## X002 (ip), vehicle: carboxymethylcellulose (CMC)",161 % of control
same,T/C,"dose: 2400.0 mg/kg/injection, schedule: Q## X003 (ip), vehicle: carboxymethylcellulose (CMC)",101 % of control
same,T/C,"dose: 2400.0 mg/kg/injection, schedule: Q## X008 (ip), vehicle: carboxymethylcellulose (CMC)",188 % of control
same,T/C,"dose: 2400.0 mg/kg/injection, schedule: Q## X016 (ip), vehicle: carboxymethylcellulose (CMC)",232 % of control
CSc1cc2c(c(SC)c1[N+](=O)[O-])C(=O)c1ccccc1-2,T/C,[5],102 % of control
same,T/C,[6],98 % of control
same,T/C,[7],102 % of control
C=CCC1(C(=C)C)C(=O)NC(=O)NC1=O,T/C,"dose: 75.0 mg/kg/injection, schedule: Q01DX001 (ip), vehicle: carboxymethylcellulose (CMC)",97 % of control
same,T/C,"dose: 150.0 mg/kg/injection, schedule: Q01DX001 (ip), vehicle: carboxymethylcellulose (CMC)",93 % of control
same,T/C,"dose: 300.0 mg/kg/injection, schedule: Q01DX001 (ip), vehicle: carboxymethylcellulose (CMC)",111 % of control
CC(=O)Nc1ccc(C)cc1,T/C,"dose: 100.0 mg/kg/injection, schedule: Q01DX001 (ip), vehicle: Klucel (hydroxypropylcellulose) (HPC)",94 % of control
same,T/C,"dose: 200.0 mg/kg/injection, schedule: Q01DX001 (ip), vehicle: Klucel (hydroxypropylcellulose) (HPC)",102 % of control
same,T/C,"dose: 400.0 mg/kg/injection, schedule: Q01DX001 (ip), vehicle: Klucel (hydroxypropylcellulose) (HPC)",91 % of control
